Measurements published in PMC7920804 (Bioorganic & Medicinal Chemistry Letters, 2021).

Test system: not listed separately
Assay: in vivo
Details: rat, po, 10 mg/kg

| SMILES | Cmax |
| --- | --- |
| O=c1[nH]c(Nc2cc(Cl)cc(Cl)c2)nc2cccc(O)c12 [Compound 11e, 2-((3,5-dichlorophenyl)amino)-5-hydroxyquinazolin-4(3H)-one] | 60 ng/mL |

Target: CYP3A4 (Homo sapiens, UniProt P08684)
Assay: CYP inhibition assay, 3A4
Assay type: in vitro ADME
Details: not given

CYP3A4, sequence (P08684 whole entry): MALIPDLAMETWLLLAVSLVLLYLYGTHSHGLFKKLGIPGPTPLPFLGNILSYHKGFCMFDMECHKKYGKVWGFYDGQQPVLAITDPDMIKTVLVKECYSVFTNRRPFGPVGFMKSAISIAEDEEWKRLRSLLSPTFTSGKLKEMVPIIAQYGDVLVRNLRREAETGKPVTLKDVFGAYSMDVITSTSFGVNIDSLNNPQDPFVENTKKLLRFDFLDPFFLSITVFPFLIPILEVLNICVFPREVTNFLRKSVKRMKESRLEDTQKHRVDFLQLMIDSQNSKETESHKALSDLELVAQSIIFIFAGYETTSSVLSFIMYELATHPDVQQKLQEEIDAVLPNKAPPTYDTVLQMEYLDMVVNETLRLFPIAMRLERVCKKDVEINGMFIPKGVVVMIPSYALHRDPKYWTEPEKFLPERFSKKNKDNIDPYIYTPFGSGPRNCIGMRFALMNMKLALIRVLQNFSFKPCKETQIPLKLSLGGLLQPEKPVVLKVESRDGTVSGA

| SMILES | inhibition at 10 µM |
| --- | --- |
| O=c1[nH]c(Nc2cc(Cl)cc(Cl)c2)nc2cccc(O)c12 [Compound 11e, 2-((3,5-dichlorophenyl)amino)-5-hydroxyquinazolin-4(3H)-one] | > 65% |

Target: T1, CYP1A2 (Homo sapiens, UniProt P05177)
T1 sequence (P05177 1-516): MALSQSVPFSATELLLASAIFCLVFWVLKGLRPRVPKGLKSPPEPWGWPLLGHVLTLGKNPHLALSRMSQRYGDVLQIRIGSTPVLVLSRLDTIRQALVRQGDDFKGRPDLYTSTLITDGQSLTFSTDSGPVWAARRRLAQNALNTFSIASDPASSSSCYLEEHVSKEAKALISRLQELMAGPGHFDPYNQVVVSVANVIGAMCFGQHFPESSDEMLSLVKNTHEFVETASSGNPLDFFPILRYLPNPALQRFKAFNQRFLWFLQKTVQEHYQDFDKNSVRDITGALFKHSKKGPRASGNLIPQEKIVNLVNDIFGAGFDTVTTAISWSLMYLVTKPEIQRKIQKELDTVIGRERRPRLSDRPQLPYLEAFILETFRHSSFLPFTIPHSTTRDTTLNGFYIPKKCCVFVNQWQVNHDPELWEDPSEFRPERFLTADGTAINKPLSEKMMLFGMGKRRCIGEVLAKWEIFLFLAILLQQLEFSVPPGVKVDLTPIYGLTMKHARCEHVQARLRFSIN
Assay: CYP inhibition assay, 1A2
Assay type: in vitro ADME
Details: not given

| SMILES | inhibition at 10 µM |
| --- | --- |
| O=c1[nH]c(Nc2cc(Cl)cc(Cl)c2)nc2cccc(O)c12 [Compound 11e, 2-((3,5-dichlorophenyl)amino)-5-hydroxyquinazolin-4(3H)-one] | > 65% |

Test system: SARS-CoV-2
Assay: not given
Details: not given

| SMILES | SARS-CoV-2 IC50 |
| --- | --- |
| Nc1ccc2c(=O)[nH]c(Nc3cc(F)cc(F)c3)nc2c1 [Compound 10c] | no inhibitory effects |
| O=c1[nH]c(Nc2cc(Cl)cc(Cl)c2)nc2cc(O)ccc12 [Compound 11g] | no inhibitory effects |
| Nc1ccc2c(=O)[nH]c(Nc3cc(Cl)cc(Cl)c3)nc2c1 [Compound 11c] | no inhibitory effects |
| O=c1[nH]c(Nc2cc(F)cc(F)c2)nc2cc(O)ccc12 [Compound 10g] | no inhibitory effects |
| COc1cccc2nc(Nc3cc(F)cc(F)c3)[nH]c(=O)c12 [Compound 10d] | no inhibitory effects |
| O=c1[nH]c(Nc2cc(Cl)cc(Cl)c2)nc2cc(N3CCOCC3)ccc12 [Compound 11k] | no anti-SARS-CoV-2 activity |
| O=c1[nH]c(Nc2ccc(F)cc2F)nc2cc(Cl)ccc12 [Compound 9d] | no activity |
| Cc1cc(C)c2nc(Nc3cc(F)cc(F)c3)[nH]c(=O)c2c1 [Compound 10h] | no inhibitory effects |
| O=c1[nH]c(Nc2ccc(F)cc2)nc2cc(Cl)ccc12 [Compound 9c] | no inhibitory effect |
| Cc1cc(C)c2nc(Nc3cc(Cl)cc(Cl)c3)[nH]c(=O)c2c1 [Compound 11h, 2-((3,5-Dichlorophenyl)amino)-6,8-dimethylquinazolin-4(3H)-one] | no inhibitory effects |
| COc1cccc2nc(Nc3cc(Cl)cc(Cl)c3)[nH]c(=O)c12 [Compound 11d] | no inhibitory effects |
| O=c1[nH]c(Nc2ccccc2F)nc2cc(Cl)ccc12 [Compound 9a] | no inhibitory effect |

Test system: SARS-CoV-2
Assay: microbe, parasite or virus in culture
Details: Severe acute respiratory syndrome coronavirus 2, Vero, read-out: SARS-CoV-2 IC50

| SMILES | IC50 |
| --- | --- |
| O=c1[nH]c(NCC2CCCCC2)nc2cc(Cl)ccc12 [Compound 9n] | > 14 µM |
| O=c1[nH]c(Nc2cc(Cl)cc(Cl)c2)nc2cc(Cl)ccc12 [Compound 9g, 7-chloro-2-((3,5-dichlorophenyl)amino)quinazolin-4(3H)-one] | < 0.25 µM |
| O=c1[nH]c(Nc2cc(Cl)cc(Cl)c2)nc2cccc(O)c12 [Compound 11e, 2-((3,5-dichlorophenyl)amino)-5-hydroxyquinazolin-4(3H)-one] | < 0.25 µM |
| COc1cccc(Nc2nc3cc(Cl)ccc3c(=O)[nH]2)c1 [Compound 9h] | > 11 µM |
| CCCCNc1nc2cc(Cl)ccc2c(=O)[nH]1 [Compound 9p] | > 14 µM |
| O=c1[nH]c(N2CCCCC2)nc2cc(Cl)ccc12 [Compound 9q] | > 14 µM |
| CC(C)Nc1nc2cc(Cl)ccc2c(=O)[nH]1 [Compound 9o] | > 14 µM |
